Experimental data reported in patent US12655139B2, “Isoxazolidines as RIPK1 inhibitors and use thereof” (SANOFI, priority 2020, dated 2026).
Counter-ions that a name gives are not always drawn. Like-named read-outs stand apart in the source and are kept apart here.

How the values were obtained:
[1] = molecular target: T1, hRIPK1 (aa 1-375) fusion protein (Homo sapiens, UniProt Q13546); assay: ADP-Glo kinase assay, RIPK1 autophosphorylation; assay type: biochemical
T1 construct: hRIPK1 (aa 1-375) fusion protein
T1 sequence (Q13546 1-375): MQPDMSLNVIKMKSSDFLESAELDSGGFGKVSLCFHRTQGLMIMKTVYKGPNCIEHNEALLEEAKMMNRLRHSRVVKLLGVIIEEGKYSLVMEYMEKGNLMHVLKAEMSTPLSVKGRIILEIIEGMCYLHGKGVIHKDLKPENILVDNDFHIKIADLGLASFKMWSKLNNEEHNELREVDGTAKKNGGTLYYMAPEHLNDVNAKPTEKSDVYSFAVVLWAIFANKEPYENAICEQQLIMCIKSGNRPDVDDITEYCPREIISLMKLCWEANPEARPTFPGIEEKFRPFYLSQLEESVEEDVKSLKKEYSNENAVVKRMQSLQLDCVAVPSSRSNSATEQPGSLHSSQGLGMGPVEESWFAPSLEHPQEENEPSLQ

[2] = system: U937 cells; assay: Cellular assay in U937 cells on cell death (necroptosis), TNFα/zVAD.fmk; assay type: cell-based; conditions: Homo sapiens
Outline: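 U937 cells with 100 ng/ml TNFα plus 50 μM zVAD.fmk (pre-addition suspension levels) received 10 compound concentrations (10 μM–0.26 nM or 1 μM–0.07 nM) for 18–24 h at 37 °C. Live cells were read by MTS formazan absorbance at 490 nm after 4 h. % inhibition is relative to the maximal value without TNFα/zVAD.fmk.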

[3] = Pharmacokinetic studies in mice, oral application; assay type: in vivo; conditions: male, C57BL/6, brain / plasma; mouse, 2 h, oral 30 mg/kg; read-out: Mouse PK brain/blood ratio
Procedure: Pharmacokinetic Studies in Mice
A suspension of the respective test articles (30 mg/kg, 10 ml/kg, 3 mg/ml) was prepared in 0.6% methyl cellulose (MC) by thorough mixing of the fine solid with the freshly made and filtered MC solution and administered to 24 non-fasted male C57BL/6 mice (20-25 g) by gavage. Terminal blood sampling (with the addition of K2-EDTA) was performed at 0.25, 0.5, 1, 2, 4, 6, 8 and 24 h post admin. Plasma was generated by centrifugation and deep-frozen (−20° C.). In addition, after 2 h, brain and liver were removed from the respective 3 mice. Additional plasma was collected from terminal blood. The organs were pooled, homogenized and the homogenate extracted with an acetonitrile-water mixture prior to measurement by HPLC-MS/MS. The brain/plasma ratio was determined at 2 h by dividing the brain concentration at 2 h through the respective value for the plasma concentration at 2 h.
Ex. 004: 21 mice were used in the study, without the 6 h sampling time. The same study design was applied.
A suspension of the respective test articles (30 mg/kg, 10 ml/kg, 3 mg/ml) was prepared in freshly prepared and filtered 0.6% methyl cellulose solution by wet-milling using Retsch MM 301 mixer mill (10 min, room temperature) and administered to 6 non-fasted male C57BL/6 mice (20-25 g) by gavage. Serial sampling of blood (with the addition of K3-EDTA) was performed at 0.25, 0.5, 1, 2, 4, 6, 8 and 24 h post admin. The blood samples were diluted (10 μl blood were added to a mixture of 90 μl 25% acetonitrile in water) and deep-frozen (−20° C.). After 2 h, 3 of the 6 animals were sacrificed and brain and liver taken off. Additional plasma was prepared from terminal blood. The organs were homogenized and the homogenate extracted with an acetonitrile-water mixture prior to measurement by HPLC-MS/MS. The brain/plasma ratio was determined at 2 h by dividing the brain concentration at 2 h through the respective value for the plasma concentration at 2 h.

[4] = U-937, Comparator table 5, read-out: U937 IC50 (uM) Mean
[5] = U-937, Table 2, read-out: U937 IC50

| IC50 ([1]; Comparator table 5) [nM] | Kp at 2 h [3] | IC50 ([1]; Table 1) [nM] | SMILES | IC50 [2, 4] [µM] | IC50 [2, 5] [µM] |
| --- | --- | --- | --- | --- | --- |
| 12 | 0.82 |  | N#Cc1cc(N2CCC(C(=O)N3OCC[C@H]3c3cc(F)cc(F)c3)CC2)ncn1 [A, reference compound] | 0.003 |  |
| 10 | 1.1 |  | NC(=O)c1cc(N2CCC(C(=O)N3OCC[C@H]3c3cc(F)cc(F)c3)CC2)ncn1 [D, reference compound] | 0.004 |  |
|  | 1.5 |  | N#Cc1cc(N2CCC(C(=O)N3N=CC[C@H]3c3cc(F)cc(F)c3)CC2)ncn1 [G, reference compound] | 0.002 |  |
|  |  | 41.6 | Cc1cncc([C@@H]2CCON2C(=O)C2CCN(c3cc(C(N)=O)ncn3)CC2)c1 [compound 134, (S)-6-(4-(3-(5-methylpyridin-3-yl)isoxazolidine-2-carbonyl)piperidin-1-yl)pyrimidine-4-carboxamide] |  | 0.148 |
|  |  | 21.6 | Cc1ncc([C@@H]2CCON2C(=O)C2CCN(c3nccc(C(N)=O)n3)CC2)cc1F [compound 137, 2-[4-[(3S)-3-(5-fluoro-6-methyl-3-pyridyl)isoxazolidine-2-carbonyl]-1-piperidyl]pyrimidine-4-carboxamide] |  | 0.0165 |
|  |  | 28.1 | Cc1ncc([C@@H]2CCON2C(=O)C2CCN(c3cc(C#N)ncn3)CC2)cc1F [compound 138, (S)-6-(4-(3-(5-fluoro-6-methylpyridin-3-yl)isoxazolidine-2-carbonyl)piperidin-1-yl)pyrimidine-4-carbonitrile] |  | 0.0972 |
|  |  | 33.6 | Cc1ncc([C@@H]2CCON2C(=O)C2CCN(c3cc(C(N)=O)ncn3)CC2)cc1F [compound 139, 6-[4-[(3S)-3-(5-fluoro-6-methyl-3-pyridyl)isoxazolidine-2-carbonyl]-1-piperidyl]pyrimidine-4-carboxamide] |  | 0.0447 |
|  |  | 71.3 | Cc1c(F)cncc1[C@@H]1CCON1C(=O)C1CCN(c2nccc(C#N)n2)CC1 [compound 140, (S)-2-(4-(3-(5-fluoro-4-methylpyridin-3-yl)isoxazolidine-2-carbonyl)piperidin-1-yl)pyrimidine-4-carbonitrile] |  | 0.55 |
|  |  | 81.9 | Cc1c(F)cncc1[C@@H]1CCON1C(=O)C1CCN(c2nccc(C(N)=O)n2)CC1 [compound 141, (S)-2-(4-(3-(5-fluoro-4-methylpyridin-3-yl)isoxazolidine-2-carbonyl)piperidin-1-yl)pyrimidine-4-carboxamide] |  | 0.254 |
|  |  | 407 | Cc1c(F)cncc1[C@@H]1CCON1C(=O)C1CCN(c2cc(C(N)=O)ncn2)CC1 [compound 142, (S)-6-(4-(3-(5-fluoro-4-methylpyridin-3-yl)isoxazolidine-2-carbonyl)piperidin-1-yl)pyrimidine-4-carboxamide] |  | 3 |
|  |  | 323 | Cc1c(F)cncc1[C@@H]1CCON1C(=O)C1CCN(c2cc(C#N)ncn2)CC1 [compound 143, (S)-6-(4-(3-(5-fluoro-4-methylpyridin-3-yl)isoxazolidine-2-carbonyl)piperidin-1-yl)pyrimidine-4-carbonitrile] |  | 1.76 |
|  |  | 75.2 | COc1nccc(N2CCC(C(=O)N3OCC[C@H]3c3cncc(C#N)c3)CC2)n1 [compound 144, 5-[(3S)-2-[1-(2-methoxypyrimidin-4-yl)piperidine-4-carbonyl]isoxazolidin-3-yl]pyridine-3-carbonitrile] |  | 0.536 |
|  |  | 46.6 | N#Cc1cncc([C@@H]2CCON2C(=O)C2CCN(c3ccnc(C#N)n3)CC2)c1 [compound 145, 4-[4-[(3S)-3-(5-cyano-3-pyridyl)isoxazolidine-2-carbonyl]-1-piperidyl]pyrimidine-2-carbonitrile] |  | 0.149 |
|  |  | 45.8 | CSc1nccc(N2CCC(C(=O)N3OCC[C@H]3c3cncc(C#N)c3)CC2)n1 [compound 146, 5-[(3S)-2-[1-(2-methylsulfanylpyrimidin-4-yl)piperidine-4-carbonyl]isoxazolidin-3-yl]pyridine-3-carbonitrile] |  | 0.229 |
|  |  | 30.6 | N#Cc1cncc([C@@H]2CCON2C(=O)C2CCN(c3ccnc(Cl)n3)CC2)c1 [compound 147, 5-[(3S)-2-[1-(2-chloropyrimidin-4-yl)piperidine-4-carbonyl]isoxazolidin-3-yl]pyridine-3-carbonitrile] |  | 0.0569 |
|  |  | 370 | CCOC(=O)c1nccc(N2CCC(C(=O)N3OCC[C@H]3c3cncc(C#N)c3)CC2)n1 [compound 149, ethyl 4-[4-[(3S)-3-(5-cyano-3-pyridyl)isoxazolidine-2-carbonyl]-1-piperidyl]pyrimidine-2-carboxylate] |  | 6.17 |
|  |  | 69 | Cc1coc([C@@H]2CCON2C(=O)C2CCN(c3nccc(C#N)n3)CC2)c1 [compound 150, (S)-2-(4-(3-(4-methylfuran-2-yl)isoxazolidine-2-carbonyl)piperidin-1-yl)pyrimidine-4-carbonitrile] |  | 0.0235 |
|  |  | 100 | Cc1coc([C@@H]2CCON2C(=O)C2CCN(c3nccc(C(N)=O)n3)CC2)c1 [compound 151, (S)-2-(4-(3-(4-methylfuran-2-yl)isoxazolidine-2-carbonyl)piperidin-1-yl)pyrimidine-4-carboxamide 2,2,2-trifluoroacetate salt] |  | 0.025 |
|  |  | 132 | Cc1coc([C@@H]2CCON2C(=O)C2CCN(c3cc(C#N)ncn3)CC2)c1 [compound 152, (S)-6-(4-(3-(4-methylfuran-2-yl)isoxazolidine-2-carbonyl)piperidin-1-yl)pyrimidine-4-carbonitrile 2,2,2-trifluoroacetate salt] |  | 0.128 |
|  |  | 102 | Cc1coc([C@@H]2CCON2C(=O)C2CCN(c3cc(C(N)=O)ncn3)CC2)c1 [compound 153, (S)-6-(4-(3-(4-methylfuran-2-yl)isoxazolidine-2-carbonyl)piperidin-1-yl)pyrimidine-4-carboxamide 2,2,2-trifluoroacetate salt] |  | 0.0998 |
|  |  | 20.1 | Cc1cc([C@@H]2CCON2C(=O)C2CCN(c3nccc(C#N)n3)CC2)co1 [compound 162, (S)-2-(4-(3-(5-methylfuran-3-yl)isoxazolidine-2-carbonyl)piperidin-1-yl)pyrimidine-4-carbonitrile] |  | 0.00541 |
|  |  | 20.8 | Cc1cc([C@@H]2CCON2C(=O)C2CCN(c3cc(C#N)ncn3)CC2)co1 [compound 163, (S)-6-(4-(3-(5-methylfuran-3-yl)isoxazolidine-2-carbonyl)piperidin-1-yl)pyrimidine-4-carbonitrile] |  | 0.00604 |
|  |  | 23.4 | N#Cc1cncc([C@@H]2CCON2C(=O)C2CCN(c3cc(F)ncn3)CC2)c1 [compound 169, (S)-5-(2-(1-(6-fluoropyrimidin-4-yl)piperidine-4-carbonyl)isoxazolidin-3-yl)nicotinonitrile] |  | 0.119 |
|  |  | 173 | N#Cc1cc([C@@H]2CCON2C(=O)C2CCN(c3nccc(C(N)=O)n3)CC2)cnn1 [compound 179, 2-[4-[(3S)-3-(6-cyanopyridazin-4-yl)isoxazolidine-2-carbonyl]-1-piperidyl]pyrimidine-4-carboxamide] |  | 2.03 |
|  |  | 15.6 | Cc1ccc([C@@H]2CCON2C(=O)C2CCN(c3ncc(C)c(C(N)=O)n3)CC2)s1 [compound 182, 5-methyl-2-[4-[(3S)-3-(5-methyl-2-thienyl)isoxazolidine-2-carbonyl]-1-piperidyl]pyrimidine-4-carboxamide] |  | 0.00701 |
|  |  | 65.9 | Cc1ccc([C@@H]2CCON2C(=O)C2CCN(c3ncnc(C(N)=O)c3F)CC2)cn1 [compound 187, 5-fluoro-6-[4-[(3S)-3-(6-methyl-3-pyridyl)isoxazolidine-2-carbonyl]-1-piperidyl]pyrimidine-4-carboxamide; trifluoroacetic acid] |  | 0.321 |
